Laboratory results reported in PMC12593409, “Heterochiral and Heterotypic Self-Assembly of Intrinsically Disordered Peptides Confers Peptide Supercoils with Exceptional Proteolytic Stability” (Journal of the American Chemical Society, 2025).
Read-outs that look alike come from different tables or passages of the source. Non-standard residues stand in square brackets, D forms with d. Residues, ends and D or L forms follow the SMILES beside them. *: point of attachment. Acetyl(1-pyrenyl) = O=C(Cc1ccc2ccc3cccc4ccc1c2c34)*; d(pY) = N[C@H](Cc1ccc(OP(=O)(O)O)cc1)C(=O)O; pY = N[C@@H](Cc1ccc(OP(=O)(O)O)cc1)C(=O)O

Columns and labels:
[1] = test system: alkaline phosphatase (ALP); assay: in vitro; conditions: alkaline phosphatase (ALP, 1 U/mL)
Text: (§1) (D) Kinetics of ALP-mediated dephosphorylation under similar conditions using 1 U/mL ALP.
(§2) To further validate the structural hypothesis, we performed enzymatic assays using ALP, which removes phosphate groups from both D- and L-tyrosines and has been widely used to explore enzyme-instructed self-assembly (EISA). , This setup isolates Pyn-EEEEEpY as the reactive component, allowing us to assess the impact of coassembly with Pyn-KKKKKK on dephosphorylation kinetics. Using the same protocol as the protease experiments, we measured the rate of dephosphorylation for Pyn-EEEEEpY monomers and their homo- and heterochiral mixtures with two equivalents of Pyn-KKKKKK (Figure S54 and Table S2).

[2] = molecular target: proteinase K (Parengyodontium album, UniProt P06873); assay: Proteolytic stability against proteinase K, followed by LC/MS
Procedure: At designated time points, we quenched the reactions and analyzed them by LC/MS (Figures S34, S52–S53, and Table S1).
Proteinase K Treatment: To 200 µL solutions containing peptides 1, 2, 3, 4, and their mixtures (1/2, 1/4, 3/2, 3/4) in double-distilled water, 2 µL of a 100 mg/mL proteinase K stock solution was added to achieve a final concentration of 1 mg/mL. The reactions were incubated at 37 °C. For controls, 40 µL aliquots were withdrawn from each solution prior […]
were rapidly frozen in liquid nitrogen to stop the reaction. Samp les were then lyophilized at −80 °C, reconstituted in 0.1% TFA in H2O/acetonitrile (1:1 v/v), filtered, and analyzed […]
LC/MS analysis was performed with solvent A (water + 0.1% formic acid) and solvent B (acetonitrile + 0.1% formic acid) with a gradient program using the following separation […]
13.1 min 95%A, 5%B; 14 min 95%A, 5%B. The mass spectrometer was operated in positive ion mode, scanning a range of 50 –3000 m/z.

[3] = test system: alkaline phosphatase (ALP); conditions: 1 U/mL ALP, 37 °C, neutral pH, monomeric peptide, LC/MS
Text: as §1, §2

Chain of proteinase K (P06873 106-384): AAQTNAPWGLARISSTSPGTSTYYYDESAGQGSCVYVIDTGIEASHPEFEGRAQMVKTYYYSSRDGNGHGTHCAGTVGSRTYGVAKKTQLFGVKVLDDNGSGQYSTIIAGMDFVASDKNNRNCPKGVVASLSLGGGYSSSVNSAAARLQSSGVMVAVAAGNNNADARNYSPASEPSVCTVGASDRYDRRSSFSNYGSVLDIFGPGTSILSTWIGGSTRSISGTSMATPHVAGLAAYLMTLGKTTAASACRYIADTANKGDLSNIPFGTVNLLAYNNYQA

O=C(O)CC[C@H](NC(=O)Cc1ccc2ccc3cccc4ccc1c2c34)C(=O)N[C@@H](CCC(=O)O)C(=O)N[C@@H](CCC(=O)O)C(=O)N[C@@H](CCC(=O)O)C(=O)N[C@@H](CCC(=O)O)C(=O)N[C@@H](Cc1ccc(OP(=O)(O)O)cc1)C(=O)O [compound 1, Pyn-(L)-EEEEEpY] ({Acetyl(1-pyrenyl)}-EEEEE[pY]-OH)
half-life [1]: 4.7 min
time to almost complete proteolysis ([2]; 1 mg/mL proteinase K, 37 °C, neutral pH, 1 mM monomeric peptide, LC/MS): ≤ 30 min
thalf of Pyn-(L)-EEEEEpY (1) in proteinase K digestion ([2]; 1 mg/mL proteinase K, 37 °C, neutral pH, double-distilled water, 1 mM 1 alone or 500 μM 1 with 2 equiv of 2 or 4, sampled 5 min, 30 min, 2 h, 24 h, kinetic analysis of HPLC peak areas (LC/MS)): approximately 10 min
half-life at 1 mM ([2]; isolated enzyme proteinase k): 10 min
time to complete dephosphorylation [3]: ≤ 30 min

O=C(O)CC[C@@H](NC(=O)Cc1ccc2ccc3cccc4ccc1c2c34)C(=O)N[C@H](CCC(=O)O)C(=O)N[C@H](CCC(=O)O)C(=O)N[C@H](CCC(=O)O)C(=O)N[C@H](CCC(=O)O)C(=O)N[C@H](Cc1ccc(OP(=O)(O)O)cc1)C(=O)O [compound 3, Pyn-(D)-eeeeepy] ({Acetyl(1-pyrenyl)}-[dE][dE][dE][dE][dE][d(pY)]-OH)
half-life [1]: 9.6 min
time to complete dephosphorylation [3]: ≤ 30 min

NCCCC[C@H](NC(=O)[C@H](CCCCN)NC(=O)[C@H](CCCCN)NC(=O)[C@H](CCCCN)NC(=O)[C@H](CCCCN)NC(=O)[C@H](CCCCN)NC(=O)Cc1ccc2ccc3cccc4ccc1c2c34)C(=O)O [compound 4, Pyn-(L)-KKKKKK]
proteolysis of Pyn-(L)-KKKKKK (4) alone ([2]; 1 mg/mL proteinase K, 37 °C, peptide alone, LC/MS (Figure S35B)): largely resistant to proteolysis

Pyn-(L)-EEEEEpY/Pyn-(D)-kkkkkk [1/2]
cleavage slower than for Pyn-(L)-EEEEEpY (1) alone [2]: over 360 times
state of Pyn-(L)-EEEEEpY (1) under proteinase K for up to 24 h [2]: remained largely intact
thalf of Pyn-(L)-EEEEEpY (1) in proteinase K digestion [2]: > 3600 min

Pyn-(L)-EEEEEpY/Pyn-(L)-KKKKKK [1/4]
increase in half-life compared to the L-peptide (1) alone [2]: 287 fold
thalf of Pyn-(L)-EEEEEpY (1) in proteinase K digestion [2]: 2872 min
